This is an account of results in patent US7259140B2, “Heparin-binding peptides and uses thereof” (Thomas Jefferson University, priority 2003, dated 2007).

Bridge positions count the residues as written; N and C are the ends. Ends that are not written are not given here. Peptide text beside a SMILES is read from it.

The Kd is a measure of binding affinity in units of concentration.

Assay [1] is described as follows: Affinity coelectrophoresis (ACE) of peptide binding to radiolabeled low Mr heparin. Details: species or system pig. Particulars: pH 7.0, mean and standard deviation of four assays, read-out: Kd (nM), affinity for low molecular weight heparin. The text has this: Preparation of Radiolabeled Heparin. Whole heparin from pig intestinal mucosa (Sigma) was tyramine end-labeled and radiolabeled with Na^125I (Amersham, Pharmacia Biotech, Inc., Piscataway, N.J.) to an average specific activity≅1.0×10^7 CPM/μg as described (San Antonio, J. D., et al., Biochemistry, 32:4746-4755, 1993). Radiolabeled heparin was fractionated on Sephadex G-100 (Bio-Rad Laboratories, Hercules, Calif.) and the final≅12% of material to elute was retained as the low Mr material of ≦6,000 (Jordan, R., D. Beeler, and R. Rosenberg, J. Biol. Chem., 254:2902-2913, 1979; Laurent, T. C., et al., Biochem. J., 175:691-701, 1978).
Analysis of Peptide-Heparin Interactions by Affinity Coelectrophoresis (ACE). ACE was used to study interactions between peptides and low molecular weight (low Mr) heparin (WO00/45831). In ACE, trace concentrations of radiolabeled heparin are electrophoresed through agarose lanes containing peptides at various concentrations. These analyses are used to determine the dissociation constants (Kd's). The electrophoretic patterns of radiolabeled heparin are then visualized using a phosphorimager, and the dissociation constant (Kd) corresponds to the protein concentration at which the heparin is half shifted from being fully mobile at very low protein concentrations to maximally retarded at saturating protein concentrations. The lower the Kd value, the higher the affinity.
Binding of radiolabeled heparin to peptides was studied by ACE as detailed elsewhere (San Antonio, J. D., et al., Biochemistry, 32:4746-4755, 1993). […] Briefly, peptides were dissolved in 1×ACE running buffer, 50 mM sodium 3-(N-morpholino)-2-hydroxypropanesulfonate (MOPSO, Sigma)/125 mM sodium acetate, pH 7.0, and serially diluted in running buffer at 2× concentrations. Peptides were then mixed 1:1 with 2% agarose/1% CHAPS, 3-[(3-cholamidopropyl)dimethylammonio]-1-propanesulfonate, (Boehringer Mannheim, Indianapolis, Ind.), and loaded into wells of a 1% agarose gel. Radiolabeled heparin was then loaded in a slot on the anode side of the gel, and electrophoresed through the peptide-containing wells, towards the cathode. Gels were dried and PG mobility was measured with a Phosphorimager (Molecular Dynamics, Sunnyvale, Calif.) by scanning each protein lane and determining the relative radioactivity content per 88-μm pixel through the length of the lane. Retardation coefficient (R) measurements, binding isotherm curve fittings, and apparent Kd value determinations were calculated as detailed previously (Lee, M. K., and A. D. Lander, Proc. Natl. Acad. Sci. USA, 88:2768-2772, 1991; San Antonio, J. D., et al, Biochemistry, 32:4746-4755, 1993).
Retardation coefficients (R) for the migration of low Mr 1^25I-tyramine-heparin through peptides were determined from ACE gel electrophoretograms, and are plotted against peptide concentration. Smooth curves represent non-linear least-squares fits to the equation R=R∞/{1+(Kd/[peptide])^n}.

Assay [2] deals with anti-Factor Xa Activity of Unfractionated Heparin. The experiment in a line: Anti-Factor Xa assay: neutralization of unfractionated heparin in citrate or plasma in vitro. It is filed as biochemical, human. Conditions: for Unfractionated Heparin Neutralized: UFH 0.7 U/ml. How it is done:
The ability of peptides such as (ARKKAAKA)3VLVLVLVL (SEQ ID NO:5) to neutralize the anti-Factor Xa activity of UFH and LMWH in vitro was tested using the Stachrom Heparin kit (Diagnostica Stago), a standard hematology laboratory assay used to measure the anti-Factor Xa activity of heparin. The assay was performed using the low molecular weight heparin enoxaparin sodium (Lovenox®, Aventis Pharmaceuticals, Inc.), unfractionated heparin (UFH), or the non-heparin glycosaminoglycan danaparoid sodium (Orgaran®, Organon Inc., West Orange, N.J.) in 0.32% citrate or in plasma anticoagulated with 0.32% citrate. Enoxaparin is commonly used clinically as a low molecular weight heparin (LMWH). Danaparoid is commonly used clinically as a non-heparin glycosaminoglycan anticoagulant. Currently, the only FDA approved drug to target UFH is protamine, which is not effective in vivo against LMWH or a non-heparin glycosaminoglycan such as danaparoid. Buffer and ATIII are added to form the heparin/ATIII complex, peptide is added, then Factor Xa, reporter dye substrate for Factor Xa activity, and stop solution, and the dye concentration is read at 405 nm. The absorbance of the dye increases with increasing Factor Xa activity, and thus is inversely proportional to the heparin (anti-Factor Xa activity) concentration. Peptides were tested in plasma obtained from three volunteers (A, B, and C). Platelet function inhibitors PG12 and theophylline were added to the blood immediately upon collection. […]

Turning to `C[C@@H]1NC(=O)[C@H](C)NC(=O)[C@H](CCCCN)NC(=O)[C@H](CCCCN)NC(=O)[C@H](CCCNC(=N)N)NC(=O)[C@H](C)NC(=O)[C@H](C)NC(=O)[C@H](CCCCN)NC(=O)[C@H](C)NC(=O)[C@H](C)NC(=O)[C@H](CCCCN)NC(=O)[C@H](CCCCN)NC(=O)[C@H](CCCNC(=N)N)NC(=O)[C@H](C)NC(=O)[C@@H](N)CSSC[C@@H](C(=O)O)NC(=O)[C@H](C)NC(=O)[C@H](CCCCN)NC(=O)[C@H](C)NC(=O)[C@H](C)NC(=O)[C@H](CCCCN)NC(=O)[C@H](CCCCN)NC(=O)[C@H](CCCNC(=N)N)NC(=O)[C@H](C)NC(=O)[C@H](C)NC(=O)[C@H](CCCCN)NC(=O)[C@H](C)NC(=O)[C@H](C)NC(=O)[C@H](CCCCN)NC(=O)[C@H](CCCCN)NC(=O)[C@H](CCCNC(=N)N)NC(=O)[C@H](C)NC(=O)[C@H](C)NC(=O)[C@H](CCCCN)NC1=O` [C(ARKKAAKA)4C, cyclized C(ARKKAAKA)4C] (H-CARKKAAKAARKKAAKAARKKAAKAARKKAAKAC-OH; disulfide 1-34), in assay [1], the Kd amounted to 38 ± 13 nM. Further, the “Unfractionated Heparin Neutralized” value in assay [2] (1 μg/ml Peptide, A Plasma) turned out to be 0.157 ± 0.032 U/ml; in assay [2] (1 μg/ml Peptide, B Plasma), 0.194 ± 0.066 U/ml; in assay [2] (1 μg/ml Peptide, C Plasma), 0.078 ± 0.027 U/ml; in assay [2] (1 μg/ml Peptide, Citrate) it was 0.131 ± 0.070 U/ml; in assay [2] (6 μg/ml Peptide, A Plasma), 0.442 ± 0.031 U/ml; in assay [2] (6 μg/ml Peptide, B Plasma), 0.426 ± 0.064 U/ml. Also, the “Unfractionated Heparin Neutralized” value in assay [2] (6 μg/ml Peptide, C Plasma) is 0.447 ± 0.054 U/ml; in assay [2] (6 μg/ml Peptide, Citrate) it was 0.590 ± 0.024 U/ml; in assay [2] (12 μg/ml Peptide, A Plasma), 0.579 ± 0.128 U/ml; in assay [2] (12 μg/ml Peptide, B Plasma), 0.552 ± 0.056 U/ml; in assay [2] (12 μg/ml Peptide, C Plasma) it was 0.583 ± 0.066 U/ml; in assay [2] (12 μg/ml Peptide, Citrate), 0.560 ± 0.012 U/ml. Further, the “Unfractionated Heparin Neutralized” value in assay [2] (60 μg/ml Peptide, A Plasma) worked out at 0.605 ± 0.088 U/ml; in assay [2] (60 μg/ml Peptide, B Plasma), 0.566 ± 0.036 U/ml; in assay [2] (60 μg/ml Peptide, C Plasma), 0.572 ± 0.076 U/ml; in assay [2] (60 μg/ml Peptide, Citrate), 0.560 ± 0.018 U/ml; in assay [2] (120 μg/ml Peptide, A Plasma), 0.618 ± 0.051 U/ml; in assay [2] (120 μg/ml Peptide, B Plasma), 0.512 ± 0.032 U/ml. Also, the “Unfractionated Heparin Neutralized” value came to 0.580 ± 0.051 U/ml in assay [2] (120 μg/ml Peptide, C Plasma) and 0.530 ± 0.019 U/ml in assay [2] (120 μg/ml Peptide, Citrate).

Take “ARKKAAKAAAAAAAAAAAAAAAAAARKKAAKA [ARKKAAKA(A16)ARKKAAKA, reference compound]”: the Kd in assay [1] came to 8327 ± 60 nM. For the same molecule, the “Unfractionated Heparin Neutralized” value in assay [2] (1 μg/ml Peptide, A Plasma) came out at 0.080 ± 0.050 U/ml; in assay [2] (1 μg/ml Peptide, B Plasma) it was 0.0 U/ml; in assay [2] (1 μg/ml Peptide, C Plasma) it was 0.0 U/ml; in assay [2] (1 μg/ml Peptide, Citrate), 0.040 ± 0.017 U/ml; in assay [2] (6 μg/ml Peptide, A Plasma) it was 0.045 ± 0.029 U/ml; in assay [2] (6 μg/ml Peptide, B Plasma) it was 0.005 ± 0.007 U/ml. Moreover, the “Unfractionated Heparin Neutralized” value stood at 0.008 ± 0.012 U/ml in assay [2] (6 μg/ml Peptide, C Plasma); 0.064 ± 0.020 U/ml in assay [2] (6 μg/ml Peptide, Citrate); 0.026 ± 0.018 U/ml in assay [2] (12 μg/ml Peptide, A Plasma); 0.008 ± 0.012 U/ml in assay [2] (12 μg/ml Peptide, B Plasma); 0.0 U/ml in assay [2] (12 μg/ml Peptide, C Plasma); 0.047 ± 0.025 U/ml in assay [2] (12 μg/ml Peptide, Citrate). For the same molecule, the “Unfractionated Heparin Neutralized” value in assay [2] (60 μg/ml Peptide, A Plasma) came out at 0.100 ± 0.021 U/ml; in assay [2] (60 μg/ml Peptide, B Plasma) it was 0.084 ± 0.034 U/ml; in assay [2] (60 μg/ml Peptide, C Plasma), 0.022 ± 0.017 U/ml; in assay [2] (60 μg/ml Peptide, Citrate), 0.156 ± 0.046 U/ml; in assay [2] (120 μg/ml Peptide, A Plasma) it was 0.112 ± 0.036 U/ml; in assay [2] (120 μg/ml Peptide, B Plasma), 0.084 ± 0.018 U/ml. Moreover, the “Unfractionated Heparin Neutralized” value in assay [2] (120 μg/ml Peptide, C Plasma) stood at 0.090 ± 0.019 U/ml; in assay [2] (120 μg/ml Peptide, Citrate), 0.199 ± 0.039 U/ml. Also, the “effect in the anti-Factor Xa assay for UFH” value in assay [2] (in both citrate and plasma) is recorded as “minimal effects”.

For Protamine [reference compound], the “Unfractionated Heparin Neutralized” value in assay [2] (1 μg/ml Peptide, A Plasma) stood at 0.241 ± 0.026 U/ml; in assay [2] (1 μg/ml Peptide, B Plasma), 0.268 ± 0.028 U/ml; in assay [2] (1 μg/ml Peptide, C Plasma), 0.161 ± 0.030 U/ml; in assay [2] (1 μg/ml Peptide, Citrate), 0.126 ± 0.042 U/ml; in assay [2] (6 μg/ml Peptide, A Plasma), 0.442 ± 0.012 U/ml; in assay [2] (6 μg/ml Peptide, B Plasma), 0.423 ± 0.035 U/ml. In addition, the “Unfractionated Heparin Neutralized” value in assay [2] (6 μg/ml Peptide, C Plasma) is 0.425 ± 0.012 U/ml; in assay [2] (6 μg/ml Peptide, Citrate) it was 0.475 ± 0.017 U/ml; in assay [2] (12 μg/ml Peptide, A Plasma), 0.466 ± 0.023 U/ml; in assay [2] (12 μg/ml Peptide, B Plasma), 0.448 ± 0.041 U/ml; in assay [2] (12 μg/ml Peptide, C Plasma), 0.405 ± 0.035 U/ml; in assay [2] (12 μg/ml Peptide, Citrate), 0.429 ± 0.010 U/ml. The “Unfractionated Heparin Neutralized” value was determined as 0.380 ± 0.037 U/ml in assay [2] (60 μg/ml Peptide, A Plasma); 0.387 ± 0.047 U/ml in assay [2] (60 μg/ml Peptide, B Plasma); 0.350 ± 0.019 U/ml in assay [2] (60 μg/ml Peptide, C Plasma); 0.406 ± 0.023 U/ml in assay [2] (60 μg/ml Peptide, Citrate); 0.372 ± 0.024 U/ml in assay [2] (120 μg/ml Peptide, A Plasma); 0.374 ± 0.034 U/ml in assay [2] (120 μg/ml Peptide, B Plasma). Also, the “Unfractionated Heparin Neutralized” value in assay [2] (120 μg/ml Peptide, C Plasma) worked out at 0.310 ± 0.024 U/ml; in assay [2] (120 μg/ml Peptide, Citrate) it was 0.374 ± 0.030 U/ml. Besides, in assay [2] (6 μg/ml), the “anti-Factor Xa activity of UFH neutralized” value is reported as “about 0.4 U/ml”.
